Measurements reported in publication PMC9090415, “Discovery of small molecule inhibitors of Plasmodium falciparum apicoplast DNA polymerase” (Journal of Enzyme Inhibition and Medicinal Chemistry, 2022).

Target: P. falciparum apicoplast DNA polymerase (Pf-apPOL) (Plasmodium falciparum, UniProt Q8ILY1)
Test: Fluorescence-based high-throughput DNA polymerase assay (molecular beacon), primary screen and dose-response
Format: biochemical
Summary of the method: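 Single-point screening used 10 µM compound with 20 nM polymerase, 20 nM hairpin substrate and 6 µM dNTPs for 90 min at 25 °C. Confirmatory titrations (2.5–80 µM) followed fluorescence at three times, and IC50 was derived from a fit including a cooperativity term n.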

[1] = DRC-1; concentration 80 (unit not given); 10'
[2] = primary screen value of the 186 hits; unit not given; 90 min, 10 µM
[3] = primary screen value; head prints only 'DNA Pol'; 90 min, 10 µM

P. falciparum apicoplast DNA polymerase (Pf-apPOL), sequence (Q8ILY1 entry or part of it): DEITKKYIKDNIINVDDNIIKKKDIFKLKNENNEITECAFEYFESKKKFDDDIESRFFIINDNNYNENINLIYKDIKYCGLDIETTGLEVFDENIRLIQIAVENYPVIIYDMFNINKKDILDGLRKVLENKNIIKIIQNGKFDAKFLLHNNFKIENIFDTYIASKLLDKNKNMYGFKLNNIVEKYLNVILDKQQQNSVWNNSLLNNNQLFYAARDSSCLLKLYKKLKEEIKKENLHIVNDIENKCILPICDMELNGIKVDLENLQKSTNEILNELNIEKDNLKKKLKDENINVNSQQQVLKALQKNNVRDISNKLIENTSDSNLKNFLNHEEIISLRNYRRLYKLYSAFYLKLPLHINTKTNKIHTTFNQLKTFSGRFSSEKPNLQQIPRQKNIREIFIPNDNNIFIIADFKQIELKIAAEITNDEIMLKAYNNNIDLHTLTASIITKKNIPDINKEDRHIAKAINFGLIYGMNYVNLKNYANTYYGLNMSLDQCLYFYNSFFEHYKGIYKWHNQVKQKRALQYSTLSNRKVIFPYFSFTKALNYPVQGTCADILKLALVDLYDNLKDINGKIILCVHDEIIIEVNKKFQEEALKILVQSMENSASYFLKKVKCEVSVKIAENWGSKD

Which “% inhibition Apo pol 10'” value (DRC-1; concentration 2.5; 10') does the source give for `CCOc1ccc2cc(C3=NN(C(=O)CCC(=O)O)C(c4ccc(C)cc4)C3)c(=O)[nH]c2c1` (stereo not drawn) [KU0056200] here?
Its value is 1.583%.

And the “% inhibition Apol 90'” value (DRC-1; concentration 2.5; 90')?
The value was -4.0405%.

What about the “% inhibition apPOL 180'” value (DRC-1; concentration 2.5; 180') of the same compound?
Its value is -8.679%.

And the “% inhibition Apo pol 10'” value (DRC-1; concentration 5; 10')?
Its value is 6.049%.

And the “% inhibition Apol 90'” value (DRC-1; concentration 5; 90')?
The value was 0.1368%.

What about the “% inhibition apPOL 180'” value (DRC-1; concentration 5; 180') of the same compound?
The value was -5.456%.

What about the “% inhibition Apo pol 10'” value (DRC-1; concentration 10; 10') of the same compound?
The value was 12.8328%.

What about the “% inhibition Apol 90'” value (DRC-1; concentration 10; 90') of the same compound?
The value was 2.997%.

And the “% inhibition apPOL 180'” value (DRC-1; concentration 10; 180')?
The value was -3.315%.

And the “% inhibition Apo pol 10'” value (DRC-1; concentration 20; 10')?
Its value is 32.0591%.

And the “% inhibition Apol 90'” value (DRC-1; concentration 20; 90')?
The value was 18.8847%.

What about the “% inhibition apPOL 180'” value (DRC-1; concentration 20; 180') of the same compound?
The value was 8.488%.

And the “% inhibition Apo pol 10'” value (DRC-1; concentration 40; 10')?
Its value is 80.8761%.

What about the “% inhibition Apol 90'” value (DRC-1; concentration 40; 90') of the same compound?
Its value is 73.3726%.

What about the “% inhibition apPOL 180'” value (DRC-1; concentration 40; 180') of the same compound?
Its value is 64.1358%.

What about the “% inhibition Apo pol 10'” value [1] of the same compound?
The value was 88.576%.

What about the “% inhibition Apol 90'” value (DRC-1; concentration 80; 90') of the same compound?
The value was 90.0975%.

And the “% inhibition apPOL 180'” value (DRC-1; concentration 80; 180')?
The value was 90.0477%.

And the “% inhibition Apo pol 5'” value (DRC-2; 5'; concentration 10)?
Its value is 23%.

What about the “% inhibition ApPOL 90'” value (DRC-2; 90'; concentration 10) of the same compound?
The value was 23%.

And the “% inhibition ApPOL 90'” value (DRC-2; 90'; concentration 40)?
The value was 73%.

What about the “% inhibition apPOL 180'” value (DRC-2; 180'; concentration 40) of the same compound?
Its value is 73%.

What about the “% inhibition Apo pol 5'” value (DRC-2; concentration 2.5; 5') of the same compound?
Its value is 2.23%.

What about the “% inhibition Apol 40'” value (DRC-2; concentration 2.5; 40') of the same compound?
The value was 0.754%.

And the “% inhibition ApPOL 90'” value (DRC-2; concentration 2.5; 90')?
Its value is -0.536%.

What about the “% inhibition apPOL 180'” value (DRC-2; concentration 2.5; 180') of the same compound?
The value was -0.06%.

And the “% inhibition Apo pol 5'” value (DRC-2; concentration 5; 5')?
The value was 4.72%.

What about the “% inhibition Apol 40'” value (DRC-2; concentration 5; 40') of the same compound?
The value was 6%.

And the “% inhibition ApPOL 90'” value (DRC-2; concentration 5; 90')?
The value was 4.71%.

What about the “% inhibition apPOL 180'” value (DRC-2; concentration 5; 180') of the same compound?
The value was 1.23%.

What about the “% inhibition Apo pol 5'” value (DRC-2; concentration 10; 5') of the same compound?
The value was 23%.

And the “% inhibition Apol 40'” value (DRC-2; concentration 10; 40')?
Its value is 25%.

And the “% inhibition ApPOL 90'” value (DRC-2; concentration 10; 90')?
Its value is 23%.

What about the “% inhibition apPOL 180'” value (DRC-2; concentration 10; 180') of the same compound?
Its value is 16%.

And the “% inhibition Apo pol 5'” value (DRC-2; concentration 20; 5')?
Its value is 42%.

And the “% inhibition Apol 40'” value (DRC-2; concentration 20; 40')?
The value was 49%.

What about the “% inhibition ApPOL 90'” value (DRC-2; concentration 20; 90') of the same compound?
Its value is 47%.

What about the “% inhibition apPOL 180'” value (DRC-2; concentration 20; 180') of the same compound?
The value was 39%.

What about the “% inhibition Apo pol 5'” value (DRC-2; concentration 40; 5') of the same compound?
The value was 54%.

What about the “% inhibition Apol 40'” value (DRC-2; concentration 40; 40') of the same compound?
The value was 70%.

And the “% inhibition ApPOL 90'” value (DRC-2; concentration 40; 90')?
The value was 73%.

And the “% inhibition apPOL 180'” value (DRC-2; concentration 40; 180')?
Its value is 73%.

What about the “% inhibition Apo pol 5'” value (DRC-2; concentration 80; 5') of the same compound?
Its value is 55%.

What about the “% inhibition Apol 40'” value (DRC-2; concentration 80; 40') of the same compound?
Its value is 74%.

And the “% inhibition ApPOL 90'” value (DRC-2; concentration 80; 90')?
Its value is 78%.

What about the “% inhibition apPOL 180'” value (DRC-2; concentration 80; 180') of the same compound?
Its value is 82%.

What about the “DNA Pol” value [2] of the same compound?
The value was 36.

What about the “DNA Pol” value [3] of the same compound?
The value was 36.

What does the source list for `O=[N+]([O-])c1ccc(SCc2ccco2)c2cccnc12` [KU0034480]?
% inhibition Apo pol 10' (DRC-1; concentration 2.5; 10'): 15.1764%; % inhibition Apol 90' (DRC-1; concentration 2.5; 90'): 4.148%; % inhibition apPOL 180' (DRC-1; concentration 2.5; 180'): -3.317%; % inhibition Apo pol 10' (DRC-1; concentration 5; 10'): 32.9023%; % inhibition Apol 90' (DRC-1; concentration 5; 90'): 16.0357%; % inhibition apPOL 180' (DRC-1; concentration 5; 180'): 6.603%; % inhibition Apo pol 10' (DRC-1; concentration 10; 10'): 55.3292%; % inhibition Apol 90' (DRC-1; concentration 10; 90'): 36.0729%; % inhibition apPOL 180' (DRC-1; concentration 10; 180'): 23.8373%; % inhibition Apo pol 10' (DRC-1; concentration 20; 10'): 73.1419%; % inhibition Apol 90' (DRC-1; concentration 20; 90'): 49.2841%; % inhibition apPOL 180' (DRC-1; concentration 20; 180'): 26.1748%; % inhibition Apo pol 10' (DRC-1; concentration 40; 10'): 89.7276%; % inhibition Apol 90' (DRC-1; concentration 40; 90'): 77.8644%; % inhibition apPOL 180' (DRC-1; concentration 40; 180'): 65.2989%; % inhibition Apo pol 10' [1]: 92.5619%; % inhibition Apol 90' (DRC-1; concentration 80; 90'): 91.6594%; % inhibition apPOL 180' (DRC-1; concentration 80; 180'): 89.7624%; % inhibition Apo pol 5' (DRC-2; 5'; concentration 2.5): 33%; % inhibition Apo pol 5' (DRC-2; 5'; concentration 5): 33%; % inhibition Apol 40' (DRC-2; 40'; concentration 5): 33%; % inhibition ApPOL 90' (DRC-2; 90'; concentration 40): 75%; % inhibition apPOL 180' (DRC-2; 180'; concentration 40): 75%; % inhibition apPOL 180' (DRC-2; 180'; concentration 80): 75%; % inhibition Apo pol 5' (DRC-2; concentration 2.5; 5'): 33%; % inhibition Apol 40' (DRC-2; concentration 2.5; 40'): 40%; % inhibition ApPOL 90' (DRC-2; concentration 2.5; 90'): 36%; % inhibition apPOL 180' (DRC-2; concentration 2.5; 180'): 26%; % inhibition Apo pol 5' (DRC-2; concentration 5; 5'): 33%; % inhibition Apol 40' (DRC-2; concentration 5; 40'): 33%; % inhibition ApPOL 90' (DRC-2; concentration 5; 90'): 29%; % inhibition apPOL 180' (DRC-2; concentration 5; 180'): 16%; % inhibition Apo pol 5' (DRC-2; concentration 10; 5'): 38%; % inhibition Apol 40' (DRC-2; concentration 10; 40'): 39%; % inhibition ApPOL 90' (DRC-2; concentration 10; 90'): 35%; % inhibition apPOL 180' (DRC-2; concentration 10; 180'): 22%; % inhibition Apo pol 5' (DRC-2; concentration 20; 5'): 47%; % inhibition Apol 40' (DRC-2; concentration 20; 40'): 63%; % inhibition ApPOL 90' (DRC-2; concentration 20; 90'): 62%; % inhibition apPOL 180' (DRC-2; concentration 20; 180'): 53%; % inhibition Apo pol 5' (DRC-2; concentration 40; 5'): 48%; % inhibition Apol 40' (DRC-2; concentration 40; 40'): 72%; % inhibition ApPOL 90' (DRC-2; concentration 40; 90'): 75%; % inhibition apPOL 180' (DRC-2; concentration 40; 180'): 75%; % inhibition Apo pol 5' (DRC-2; concentration 80; 5'): 13%; % inhibition Apol 40' (DRC-2; concentration 80; 40'): 57%; % inhibition ApPOL 90' (DRC-2; concentration 80; 90'): 66%; % inhibition apPOL 180' (DRC-2; concentration 80; 180'): 75%; DNA Pol [2]: 42; DNA Pol [3]: 42

`Cc1ccc(C)c(CSc2nc(C3CCCCC3)c(C#N)c(=O)[nH]2)c1` [Molecule 6] was tested. Which IC50 (supplemental file 2, sheet IC50 nontoxic compounds; Pf-apPOL) did it give?
Its IC50 is 6.42 µM.
